pIC50: −log10 of the molar value. Where a name gives a salt, the structure may show the parent alone.
Target: T1, DNA polymerase α (Bos taurus, UniProt A0AAA9TD94)
T1 construct: from tissue; host or cells: bovine thymus
T1 sequence (A0AAA9TD94 1-1441): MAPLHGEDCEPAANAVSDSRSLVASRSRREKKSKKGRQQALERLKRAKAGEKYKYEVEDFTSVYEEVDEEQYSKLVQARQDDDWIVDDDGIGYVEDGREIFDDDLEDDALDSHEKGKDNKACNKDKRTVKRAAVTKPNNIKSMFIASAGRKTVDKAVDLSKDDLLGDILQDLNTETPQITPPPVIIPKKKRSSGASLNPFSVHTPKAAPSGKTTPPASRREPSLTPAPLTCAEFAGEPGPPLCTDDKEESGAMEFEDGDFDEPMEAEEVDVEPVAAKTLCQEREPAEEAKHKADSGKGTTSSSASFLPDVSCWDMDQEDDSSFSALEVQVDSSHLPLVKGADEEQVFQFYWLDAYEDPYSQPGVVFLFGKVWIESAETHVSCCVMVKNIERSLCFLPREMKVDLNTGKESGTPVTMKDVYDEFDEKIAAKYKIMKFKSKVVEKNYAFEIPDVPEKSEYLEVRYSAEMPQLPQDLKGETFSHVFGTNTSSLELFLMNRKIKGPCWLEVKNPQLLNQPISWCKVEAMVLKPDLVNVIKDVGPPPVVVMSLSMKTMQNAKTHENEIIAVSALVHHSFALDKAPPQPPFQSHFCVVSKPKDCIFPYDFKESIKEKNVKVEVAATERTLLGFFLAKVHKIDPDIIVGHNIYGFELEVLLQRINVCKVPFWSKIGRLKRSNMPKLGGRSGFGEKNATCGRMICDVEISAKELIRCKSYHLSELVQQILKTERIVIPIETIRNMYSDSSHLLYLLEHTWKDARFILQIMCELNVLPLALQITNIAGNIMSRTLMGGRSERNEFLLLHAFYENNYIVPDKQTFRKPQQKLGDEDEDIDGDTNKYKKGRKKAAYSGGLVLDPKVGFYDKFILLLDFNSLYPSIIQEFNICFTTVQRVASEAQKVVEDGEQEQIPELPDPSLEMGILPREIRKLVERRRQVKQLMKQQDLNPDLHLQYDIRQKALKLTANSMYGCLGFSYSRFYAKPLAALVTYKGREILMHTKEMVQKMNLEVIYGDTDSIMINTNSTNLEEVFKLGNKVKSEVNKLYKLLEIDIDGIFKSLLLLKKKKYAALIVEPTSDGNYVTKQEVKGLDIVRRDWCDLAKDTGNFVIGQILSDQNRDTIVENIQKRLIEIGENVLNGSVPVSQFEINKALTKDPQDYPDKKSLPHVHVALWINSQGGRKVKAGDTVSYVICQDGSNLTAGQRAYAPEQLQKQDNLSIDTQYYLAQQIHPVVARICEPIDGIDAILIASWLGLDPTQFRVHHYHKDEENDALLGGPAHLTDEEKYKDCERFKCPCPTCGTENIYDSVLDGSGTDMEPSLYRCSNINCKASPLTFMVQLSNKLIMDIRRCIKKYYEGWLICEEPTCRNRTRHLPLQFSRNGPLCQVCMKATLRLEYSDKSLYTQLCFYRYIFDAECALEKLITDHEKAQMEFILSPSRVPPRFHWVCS
Test: Assay 1: inhibitory effect against DNA polymerase α ([3H]-dTTP incorporation)
Type: biochemical
Details: DNA polymerase α from bovine thymus, 37° C., 60 minutes
Procedure: An assay on inhibitory effect against a DNA polymerase α was carried out in the following manner.
0.05 U of a DNA polymerase α purified and isolated from a bovine thymus by an immunoaffinity column was mixed with each of test compounds, sulfopyranosylacylglycerol (hereinafter, simply referred to as “SQAG”) derivatives, namely, SQAG 1, SQAG 2 and SQAG 3 (listed in table 1) dissolved in DMSO. Each mixture was added with a buffer containing inorganic salts for the enzymatic reaction, [^3H]-labeled dTTP and compounds for reaction containing a template DNA strand, and incubated at 37° C. for 60 minutes.
After the enzymatic reaction was quenched, the resultant reaction product was fixed on a dedicated filter and subjected to measurement by a liquid scintillation counter. The amount of enzymatically incorporated dTTP was calculated as a radiation dose (cpm) of [^3H]. Note that, each of the sulfopyranosylacylglycerol derivatives is a mixture of the S- and R-configurations with respect to an absolute configuration of the carbon of the 2-position of the glycerol moiety.

CCCC/C=C\CCCCCCCC(=O)OCC(O)CO[C@H]1O[C@H](CS(=O)(=O)O)[C@@H](O)[C@H](O)[C@H]1O (mixture of isomers) [SQAG1, 3-O-(6-deoxy-6-sulfo-α-D-glucopyranosyl)-1-o-myristoleoly-glycerol sodium salt]
pIC50: 4.77

CCCCCC/C=C\CCCCCCCC(=O)OCC(O)CO[C@H]1O[C@H](CS(=O)(=O)O)[C@@H](O)[C@H](O)[C@H]1O (stereo partly drawn) [SQAG2, 3-O-(6-deoxy-6-sulfo-α-D-glucopyranosyl)-1-O-palmitoleoyl-glycerol sodium salt]
pIC50: 5.02

CCCCCCCC/C=C\CCCCCCCC(=O)OCC(O)CO[C@H]1O[C@H](CS(=O)(=O)O)[C@@H](O)[C@H](O)[C@H]1O (stereo partly drawn) [SQAG3, 3-O-(6-deoxy-6-sulfo-α-D-glucopyranosyl)-1-O-oleoyl-glycerol Sodium Salt]
pIC50: 5.48
